Legend:
CDK2 = biological target: T1, CDK2 (Homo sapiens, UniProt P24941); test: CDK protein degradation activity (Western blotting), CDK2; type: cell-based; details: MDA-MB-231 cells, 16 hours, Western blot
T1 construct: endogenous in cells; host or cells: MDA-MB-231
Method in brief: (§1)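 Degradation is judged from CDK2 and CDK9 band intensity relative to tubulin and DMSO-treated cells, after 16 h exposure of MDA-MB-231 cells to three compound concentrations (100 nM, 1 μM, 10 μM).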

CDK9 = biological target: T2, CDK9 (Homo sapiens, UniProt P50750); test: CDK protein degradation activity (Western blotting), CDK9; type: cell-based; details: MDA-MB-231 cells, 16 hours, Western blot
T2 construct: endogenous in cells; host or cells: MDA-MB-231
Method in brief: as §1

T2 sequence (P50750 whole entry): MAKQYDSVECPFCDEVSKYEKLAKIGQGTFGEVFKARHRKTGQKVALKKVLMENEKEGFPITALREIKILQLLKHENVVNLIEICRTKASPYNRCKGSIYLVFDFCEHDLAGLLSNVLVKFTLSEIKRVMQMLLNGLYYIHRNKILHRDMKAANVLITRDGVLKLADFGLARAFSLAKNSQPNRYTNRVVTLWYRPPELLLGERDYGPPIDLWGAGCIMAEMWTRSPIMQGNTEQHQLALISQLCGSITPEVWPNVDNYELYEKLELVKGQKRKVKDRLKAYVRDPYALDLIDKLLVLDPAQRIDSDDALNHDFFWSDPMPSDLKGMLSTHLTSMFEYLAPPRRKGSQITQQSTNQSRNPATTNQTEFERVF

SMILES | Enzyme degradation CDK2 (% remaining) @ 0.1 μM (CDK2) | Enzyme degradation CDK2 (% remaining) @ 1 μM (CDK2) | Enzyme degradation CDK2 (% remaining) @ 10 μM (CDK2) | Enzyme degradation CDK9 (% remaining) @ 0.1 μM (CDK9) | Enzyme degradation CDK9 (% remaining) @ 1 μM (CDK9) | Enzyme degradation CDK9 (% remaining) @ 10 μM (CDK9)
O=C1CC[C@H](N2C(=O)c3ccc(N4CC(C(=O)N5CCC(CCN6CCN(c7ccc(Nc8ncnc9c8ncn9C8CC(NC(=O)Cc9ccccc9)C8)cc7)CC6)CC5)C4)cc3C2=O)C(=O)N1 (stereo partly drawn) [Compound 328, N-((1s,3s)-3-(6-((4-(4-(2-(1-(1-(2-(2,6-dioxopiperidin-3-yl)-1,3-dioxoisoindolin-5-yl)azetidin-3-carbonyl)piperidin-4-yl)ethyl)piperazin-1-yl)phenyl)amino)-9H-purin-9-yl)cyclobutyl)-2-phenylacetamide] | 40% | 50% | 40% | 0/0/0% | 0/0/0% | 0/0/0%
Cc1cccc(C(=O)NC2CC(n3cnc4c(NCCC5CCN(CC6CCN(C(=O)CNc7cccc8c7C(=O)N([C@H]7CCC(=O)NC7=O)C8=O)CC6)CC5)ncnc43)C2)n1 (stereo partly drawn) [Compound 123, N-((1s,3s)-3-(6-((2-(1-((1-((2-(2,6-dioxopiperidin-3-yl)-1,3-dioxoisoindolin-4-yl)glycyl)piperidin-4-yl)methyl)piperidin-4-yl)ethyl)amino)-9H-purin-9-yl)cyclobutyl)-6-methylpicolinamide] | 10% | 10% | 20% | 0/0/0% | 0/0/0% | 0/0/0%
O=C1CCC(N2C(=O)c3cccc(CCCCN4CCC(CN5CCN(c6ccc(Nc7ncnc8c7ncn8[C@H]7C[C@@H](NC(=O)c8cccc(F)n8)C7)cc6)CC5)CC4)c3C2=O)C(=O)N1 (stereo partly drawn) [Compound 432, N-((1s,3s)-3-(6-((4-(4-((1-(4-(2-(2,6-dioxopiperidin-3-yl)-1,3-dioxoisoindolin-4-yl)butyl)piperidin-4-yl)methyl)piperazin-1-yl)phenyl)amino)-9H-purin-9-yl)cyclobutyl)-6-fluoropicolinamide] | 50% | 40% | 40% | 0/0/0% | 0/0/0% | 0/0/0%
O=C1CC[C@H](N2C(=O)c3ccc(N4CC(C(=O)N5CCC(CN6CCC(CCNc7ncnc8c7ncn8[C@H]7C[C@@H](NC(=O)Cc8ccccc8)C7)CC6)CC5)C4)cc3C2=O)C(=O)N1 [Compound 411, N-((1s,3s)-3-(6-((2-(1-((1-(1-(2-(2,6-dioxopiperidin-3-yl)-1,3-dioxoisoindolin-5-yl)azetidin-3-carbonyl)piperidin-4-yl)methyl)piperidin-4-yl)ethyl)amino)-9H-purin-9-yl)cyclobutyl)-2-phenylacetamide] | 40/40/40% | 40/40/40% | 40/40/40% | 10/10/10% | 10/10/10% | 10/10/10%
O=C1CC[C@H](n2nnc3ccc(N4CCN(C5CCN(c6ccc(Nc7ncnc8c7ncn8C7CC(NC(=O)Cc8ccccc8)C7)cc6)CC5)CC4)cc3c2=O)C(=O)N1 (stereo partly drawn) [Compound 357, N-((1s,3s)-3-(6-((4-(4-(4-(3-(2,6-dioxopiperidin-3-yl)-4-oxo-3,4-dihydrobenzo[d][1,2,3]triazin-6-yl)piperazin-1-yl)piperidin-1-yl)phenyl)amino)-9H-purin-9-yl)cyclobutyl)-2-phenylacetamide] | 70% | 20% | 20% | 80% | 30% | 30%
O=C1CC[C@@H](c2ccc(OCC(=O)N3CCC(CN4CCC(c5ccc(Nc6ncnc7c6ncn7C6CC(NC(=O)Cc7ccccc7)C6)cc5)CC4)CC3)cc2)C(=O)N1 (stereo partly drawn) [Compound 281, N-((1s,3s)-3-(6-((4-(1-((1-(2-(4-(2,6-dioxopiperidin-3-yl)phenoxy)acetyl)piperidin-4-yl)methyl)piperidin-4-yl)phenyl)amino)-9H-purin-9-yl)cyclobutyl)-2-phenylacetamide] | 30% | 50% | 50% | 0/0/0% | 0/0/0% | 0/0/0%
O=C1CC[C@@H](c2ccc(OCC(=O)N3CCN(CCCN4CCN(c5ccc(Nc6ncnc7c6ncn7C6CC(NC(=O)Cc7ccccc7)C6)cc5)CC4)CC3)cc2)C(=O)N1 (stereo partly drawn) [Compound 236, N-((1s,3s)-3-(6-((4-(4-(3-(4-(2-(4-(2,6-dioxopiperidin-3-yl)phenoxy)acetyl)piperazin-1-yl)propyl)piperazin-1-yl)phenyl)amino)-9H-purin-9-yl)cyclobutyl)-2-phenylacetamide] | 50/50/50% | 50/50/50% | 50/50/50% | 20% | 0% | 0%
O=C1CCC(N2C(=O)c3ccc(N4CC(C(=O)N5CCN(C6CN(c7ccc(Nc8ncnc9c8ncn9[C@H]8C[C@@H](NC(=O)Cc9ccccc9)C8)cc7)C6)CC5)C4)cc3C2=O)C(=O)N1 (stereo partly drawn) [Compound 374, N-((1s,3s)-3-(6-((4-(3-(4-(1-(2-(2,6-dioxopiperidin-3-yl)-1,3-dioxoisoindolin-5-yl)azetidin-3-carbonyl)piperazin-1-yl)azetidin-1-yl)phenyl)amino)-9H-purin-9-yl)cyclobutyl)-2-phenylacetamide] | 30% | 30% | 50% | 30% | 20% | 20%
Cc1cccc(C(=O)NC2CC(n3cnc4c(Nc5ccc(N6CCN(CC7CCN(c8ccc9nnn([C@H]%10CCC(=O)NC%10=O)c(=O)c9c8)CC7)CC6)cc5C)ncnc43)C2)n1 (stereo partly drawn) [Compound 478, N-((1s,3s)-3-(6-((4-(4-((1-(3-(2,6-dioxopiperidin-3-yl)-4-oxo-3,4-dihydrobenzo[d][1,2,3]triazin-6-yl)piperidin-4-yl)methyl)piperazin-1-yl)-2-methylphenyl)amino)-9H-purin-9-yl)cyclobutyl)-6-methylpicolinamide] | 10% | 20% | 20% | 20/20/20% | 20/20/20% | 20/20/20%
O=C1CC[C@H](N2C(=O)c3ccc(N4CCC(C(=O)N5CCC6(CC5)CC(N5CCN(c7ccc(Nc8ncnc9c8ncn9[C@H]8C[C@@H](NC(=O)c9c(Cl)cccc9Cl)C8)cc7)CC5)C6)CC4)cc3C2=O)C(=O)N1 [Compound 376, 2,6-dichloro-N-((1s,3s)-3-(6-((4-(4-(7-(1-(2-(2,6-dioxopiperidin-3-yl)-1,3-dioxoisoindolin-5-yl)piperidin-4-carbonyl)-7-azaspiro[3.5]nonan-2-yl)piperazin-1-yl)phenyl)amino)-9H-purin-9-yl)cyclobutyl)benzamide] | 30/30/30% | 30/30/30% | 30/30/30% | 10/10/10% | 10/10/10% | 10/10/10%
O=C1CCC(c2ccc(OCC(=O)N3CC(CN4CCC5(CC4)CC(N4CCN(c6ccc(Nc7ncnc8c7ncn8[C@H]7C[C@@H](NC(=O)Cc8ccccc8)C7)cc6)CC4)C5)C3)cc2)C(=O)N1 (stereo partly drawn) [Compound 275, N-((1s,3s)-3-(6-((4-(4-(7-((1-(2-(4-(2,6-dioxopiperidin-3-yl)phenoxy)acetyl)azetidin-3-yl)methyl)-7-azaspiro[3.5]nonan-2-yl)piperazin-1-yl)phenyl)amino)-9H-purin-9-yl)cyclobutyl)-2-phenylacetamide] | 80% | 60% | 60% | 70% | 30% | 0%

Source: patent US20260125382A1, “COMPOUNDS FOR INHIBITING OR DEGRADING CDK2 AND/OR CDK9 AND MEDICINAL USE THEREOF” (KOREA RESEARCH INSTITUTE OF CHEMICAL TECHNOLOGY, priority 2022, published 2026)
